Experiments:
[1] = Inhibition of CD28-CD80 interaction in the absence of fetal bovine serum (FBS)
[2] = target: T-cell surface glycoprotein CD4 (Homo sapiens, UniProt P01730); experiment: Inhibitory concentration against CD4-gp120 binding in the absence of fetal bovine serum (FBS); Range is 0.13-0.5 uM
[3] = Inhibition of CD28-CD80 interaction in the presence of fetal bovine serum (FBS)

CC(=O)CC(O)(C(=O)N[C@@H]1Cc2c[nH]c3cc(ccc23)-c2cc3cc(c2O)Oc2ccc(cc2)C[C@@H](C(=O)N[C@@H](C(=O)O)c2ccc(O)cc2)N(C)C(=O)[C@@H](c2cc(Cl)c(O)c(Cl)c2)NC(=O)[C@@H]3NC(=O)[C@@H](c2cc(Cl)c(O)c(Cl)c2)NC1=O)c1cc(Cl)c(O)c(Cl)c1 (some centres undefined)
IC50 [1]: 8 nM
IC50 [2]: 130 nM
IC50 [3]: 220 nM

CN1C(=O)[C@@H](c2cc(Cl)c(O)c(Cl)c2)NC(=O)[C@@H]2NC(=O)[C@@H](c3cc(Cl)c(O)c(Cl)c3)NC(=O)[C@H](NC(=O)C(=O)c3cc(Cl)c(O)c(Cl)c3)Cc3c[nH]c4c(cccc34)-c3cc2cc(c3O)Oc2ccc(cc2)C[C@H]1C(=O)N[C@@H](C(=O)O)c1ccc(O)cc1 [CHLOROPEPTIN]
IC50 [1]: 10 nM
IC50 [2]: 130 nM
IC50 [3]: 380 nM

CN1C(=O)[C@@H](c2cc(Cl)c(O)c(Cl)c2)NC(=O)[C@@H]2NC(=O)[C@@H](c3cc(Cl)c(O)c(Cl)c3)NC(=O)[C@H](NC(=O)C(=O)c3cc(Cl)c(O)c(Cl)c3)Cc3c[nH]c4cc(ccc34)-c3cc2cc(c3O)Oc2ccc(cc2)C[C@H]1C(=O)N[C@@H](C(=O)O)c1ccc(O)cc1 [ISOCOMPLESTATIN]
IC50 [1]: 10 nM
IC50 [2]: 130 nM
IC50 [3]: 420 nM
